Patent publication US9951149B2, “Reversible heparin molecules and methods of making and using the same” (The University of North Carolina at Chapel Hill, priority 2013, dated 2018)

Legend:
human factor Xa = test: Neutralization of LMWHs by protamine in mice, ex vivo anti-Xa activity in mouse plasma; conditions: C57BL/6J mice, s.c. test compound, protamine 15 mgkg^−1 i.v. 30 min later, plasma 5 min later (FIG. 4C)
Experimental: The study was performed on eight week old male C57BL/6J mice (Jackson Laboratories, Bar Harbor, Me., United States of America) (n=4 per group). The mouse experiments were approved by the UNC Animal Care and Use Committees and complied with National Institutes of Health guidelines. Under isoflurane anesthesia, mice were subcutaneously administered with PBS, UFH (3 mgkg^−1), LOVENOX® (3 mgkg^−1) or Compound 5 (0.6 mgkg^−1) 30 min prior to a protamine administration. […] To obtain mouse plasma, blood samples were centrifuged at 4,000 g for 15 min at 4° C. Mouse plasma was then used to determine anti-Xa activity. Ex vivo analysis of anti-Xa activity was done similar to the in vitro study described above. Briefly, plasma (10 μl) from different groups of mice was incubated with 80 nM human factor Xa (10 μl) at room temperature for 4 minutes and S-2765 (1 mgml^−1, 30 μl) was then added. The anti-Xa activity in the mouse plasma from the PBS injected mice was defined as 100%. Statistical analysis for multiple comparisons was performed by two-way ANOVA with Bonferroni's post-hoc test (GraphPad Prism Software, La Jolla, Calif., United States of America).

mice = test: Mouse model of tail bleeding; assay type: in vivo; conditions: for effect of protamine on primary bleeding time after tail transection: protamine 15 mgkg^−1 i.v. (FIG. 4D)
Experimental: Under isoflurane anesthesia, mice (n=8 per group) were administered with PBS or Compound 5 (0.6 mgkg^−1) subcutaneously, 30 min later PBS or protamine (15 mgkg^−1) was administered via retro-orbital intravenous injection. After 5 minutes the distal part of the tail was transected at the constant diameter (1.5 mm), approximately 3-4 mm from the end. That results in both arterial and venous bleeding. […] The primary bleeding time was defined as the time to the first cessation of bleeding. Subsequently, time for each reinitiated bleeding was also recorded, and used to calculate total bleeding time. One mouse in Compound 5/protamine group received an inaccurate protamine injection and was excluded from the study. The blood collected in PBS was used to calculate total blood volume loss. Formic acid was added to samples (70:30 ratio) and absorbance was measured at 405 nm. A standard curve was generated by mixing […] of PBS with known amounts of blood. Statistical analysis between each group was performed by one-way ANOVA (GraphPad Prism Software, La Jolla, Calif., United States of America) followed by Bonferroni's multiple comparison test.

CC(=O)NC1C(OC2C(C(=O)O)OC(OC3C(COS(=O)(=O)O)OC(OC4C(C(=O)O)OC(OC5C(COS(=O)(=O)O)OC(OC6C(C(=O)O)OC(OC7C(COS(=O)(=O)O)OC(OC8C(C(=O)O)OC(OC9C(COS(=O)(=O)O)OC(OC%10C(C(=O)O)OC(OC%11C(COS(=O)(=O)O)OC(OC%12C(C(=O)O)OC(Oc%13ccc([N+](=O)[O-])cc%13)C(O)C%12O)C(NS(=O)(=O)O)C%11O)C(OS(=O)(=O)O)C%10O)C(NS(=O)(=O)O)C9OS(=O)(=O)O)C(OS(=O)(=O)O)C8O)C(NS(=O)(=O)O)C7O)C(OS(=O)(=O)O)C6O)C(NS(=O)(=O)O)C5O)C(OS(=O)(=O)O)C4O)C(NS(=O)(=O)O)C3OS(=O)(=O)O)C(O)C2O)OC(COS(=O)(=O)O)C(O)C1O (centres unmarked) [Compound 5]
ex vivo reversibility of anti-FXa activity by protamine (human factor Xa): reversible | effect of protamine on blood loss after tail transection (mice; mice, Compound 5 0.6 mgkg^−1 s.c., protamine 15 mgkg^−1 i.v.): reduced the blood loss | effect of protamine on primary bleeding time after tail transection (mice; mice, Compound 5 0.6 mgkg^−1 s.c.): protamine shortened the primary bleeding time | effect of protamine on primary bleeding time after tail transection (mice; mice, Compound 5 0.6 mgkg^−1 s.c., listed as compound 5): significantly shortened the primary bleeding time | reversal of anti-Xa activity in an in vivo experiment (mice; mouse tail bleeding model, protamine): can be reversed
